From patent US20040091528A1, “Soluble drug extended release system” (Yamanouchi Pharma Technologies, Inc., priority 2002, published 2004)
Counter-ions that a name gives are not always drawn. Like-named read-outs stand apart in the source and are kept apart here.

What was measured:
[1] = In vitro dissolution (drug release) from 400 mg matrix tablets, USP apparatus II, SGF or SIF; type: physicochemical; parameters: T50 (time during which 50% of drug has been released from matrix): unit not given here; settings: for T50 (time during which 50% of drug has been released from matrix): 10 wt. % drug, 400 mg PAA/PEO (1:1.5) tablet, modified SIF; for T50 values in SIF, PAA/PEO: PAA/PEO (1:1.5) formulation, 10% of active; for T10 / T50: 1:1.5 PAA/PEO excipient mixture; for T50 values in SIF, PAA/PEO / T10 / T50 in SIF / T50: SIF; for Comments (interaction with PAA): Table 2; for T50 in SGF: modified SGF
Method: Several different formulations with different drugs were manufactured. Drugs were manually mixed with the excipients in a mortar and compressed into 400 mg tablets using Carver press or Oil press with 1000 lb applied force. Flat face 11 mm round tooling was used.
In vitro drug release was measured by in vitro dissolution experiments. […] Drug release was evaluated with either Simulated Gastric Fluid (SGF), pH=1.2 or Simulated Intestinal Fluid (SIF), pH=7.5, both prepared according to USP without enzyme added. Tablet sinkers were applied in all experiments. At predetermined time intervals, a sample was withdrawn from the vessel and assayed using a UV-VIS spectrophotometer at a wavelength of 240 nm.
The release behavior of a large group of basic highly soluble drugs (10 wt. % of drug ) from a directly compressed matrix tablet using 1:1.5 polyacrylic acid/polyethylene oxide (PAA/PEO) mix as excipient was studied under modified Simulated Intestinal Fluid (SIF) conditions.

[2] = as above; type: physicochemical; settings: for T50 values in SIF, PAA/Car: PAA/Carrageenan (1:1) formulation, 25% of active; for T50: negatively charged drugs from negatively charged PAA/PEO matrix
[3] = cited from earlier work
[4] = cited from earlier work; for Log P: Table 1; for LogP: Table 4
[5] = Table 1, model drug characteristics
[6] = Table 2, positively charged drugs

Row | Compound | T50 (time during which 50% of drug has been released from matrix) [1] | T50 values in SIF, PAA/PEO [1] | T50 values in SIF, PAA/Car [2] | Solubility [3, 5] | Log P [4] | other results
1 | CCCCOc1cc(C(=O)OCCN(CC)CC)ccc1N [Benoxinate HCl] | 22 | 22 | 23 | 1000 mg/mL | 4.0 | LogP [4]: 5.2
2 | CC(C)(C)CC(C)(C)c1ccc(OCCOCC[N+](C)(C)Cc2ccccc2)cc1 [Benzethonium Chloride] | – | – | – | – | – | T10 [1]: 25 h; Comments (interaction with PAA) [1]: Forms insoluble
3 | C[N+](C)(C)CC(=O)O [Betaine Hydrochloride] | – | – | – | – | – | T50 in SIF ([1]; 1:1.5 PAA/PEO): 22 h; T50 in SGF ([1]; 1:1.5 PAA/PEO): 4 h
4 | C[N+](C)(C)CC(=O)O [Betaine] | – | – | – | – | – | T10 [1]: 6 h; T50 [1]: 22 h; Solubility [3, 6]: 650 mg/mL
5 | CC(C[N+](C)(C)C)OC(N)=O (centres unmarked) [Bethanechol Chloride] | – | – | – | – | – | T10 [1]: 10 h; T50 [1]: 55 h; T50 in SIF ([1]; 1:1.5 PAA/PEO): 55 h; T50 in SGF ([1]; 1:1.5 PAA/PEO): 24 h; Comments (interaction with PAA) [1]: Forms insoluble
6 | CC1OC2(CS1)CN1CCC2CC1 (centres unmarked) [Cevimeline HCl] | 4.5 | – | – | 766 mg/mL | 1.1 | –
7 | CN(C)CCCN1c2ccccc2Sc2ccc(Cl)cc21 [Chlorpromazine HCl] | 56 | – | – | 400 mg/mL | – | –
8 | COc1ccc([C@@H]2Sc3ccccc3N(CCN(C)C)C(=O)[C@@H]2OC(C)=O)cc1 [Diltiazem HCl] | 18 | 18 | 21 | 800 mg/mL | 3.6 | T50 in SIF ([1]; 1:1.5 PAA/PEO): 18 h; T50 in SGF ([1]; 1:1.5 PAA/PEO): 8 h; LogP [4]: 3.6
9 | CN(C)CCOC(c1ccccc1)c1ccccc1 [Diphenhydramine HCl] | 15 | 15 | 8 | – | – | –
10 | CN(C)CCOC(C)(c1ccccc1)c1ccccn1 (centres unmarked) [Doxylamine Succinate] | 23 | 23 | 22 | 1000 mg/mL | 2.5 | LogP [4]: 2.5
11 | CN(C)CCCN1c2ccccc2CCc2ccccc21 [Imipramine HCl] | 58 | – | – | 500 mg/mL | – | –
12 | CNS(=O)(=O)CCc1ccc2[nH]cc(C3CCN(C)CC3)c2c1 [Naratriptan HCl] | – | 22 | 25 | – | – | LogP [4]: 1.8
13 | CN[C@@H](C)[C@@H](O)c1ccccc1 [Pseudoephedrine HCl] | 4 | – | – | – | 1.0 | –
14 | Cc1ncc(CO)c(CO)c1O.Cl [Pyridoxine HCl] | 4 | – | – | – | −1.9 | –
15 | CNC(=C[N+](=O)[O-])NCCSCc1ccc(CN(C)C)o1 [Ranitidine HCl] | 11 | 11 | 15 | ˜200 mg/ml | 1.3 | LogP [4]: 1.3
16 | CCOc1ccccc1OCCN[C@H](C)Cc1ccc(OC)c(S(N)(=O)=O)c1 [Tamsulosin HCl] | – | 26 | 25 | – | – | LogP [4]: 2.24
17 | Cc1ncc(C[n+]2csc(CCO)c2C)c(N)n1 [Thiamine HCl] | – | 7.5 | 7.5 | – | – | T10 [1]: 1 h; T50 [1]: 7.5 h; Release behaviour (in words) ([1]; permanently positively charged molecules, 1:1.5 PAA/PEO): slightly fast release; Solubility [3, 6]: 1000 mg/mL
18 | COc1cccc(C2(O)CCCCC2CN(C)C)c1 (centres unmarked) [Tramadol HCl] | 31 | – | – | >1000 mg/mL | 2.5 | T50 in SIF ([1]; 1:1.5 PAA/PEO): 31 h; T50 in SGF ([1]; 1:1.5 PAA/PEO): 8 h
19 | Cc1nnc(SCC2=C(C(=O)[O-])N3C(=O)[C@@H](NC(=O)Cn4cnnn4)[C@H]3SC2)s1.[Na+] [sodium cefazoline] | – | – | – | – | – | T50 [2]: about 5 hours
20 | CO[C@@]1(NC(=O)CSCC#N)C(=O)N2C(C(=O)[O-])=C(CSc3nnnn3C)CS[C@@H]21.[Na+] [sodium cefmatazole] | – | – | – | – | – | T50 [2]: about 5 hours
21 | Amitriptuline HCl | 57 | – | – | – | – | –
22 | Diphenhydramine Citrate | – | – | – | – | – | T50 in SIF ([1]; 1:1.5 PAA/PEO): 25 h; T50 in SGF ([1]; 1:1.5 PAA/PEO): 12 h
